# Legend:
# [1] = Cytotoxicity against MDCK cells assessed as cell viability at 100 uM after 40 hrs by CellTiter-Glo assay relative to control; type: cell-based, Canis lupus familiaris; conditions: dog, read-out: Activity
# [2] = Antiviral activity against Influenza A virus (A/WSN/33(H1N1)) infected in MDCK cells assessed as inhibition of virus-induced cytopathic effect at 100 uM incubated for 40 hrs by CellTiter-Glo assay; type: functional, Influenza A virus (A/WSN/1933(H1N1))
# [3] = Antiviral activity against Influenza A virus (A/WSN/33(H1N1)) infected in MDCK cells assessed as inhibition of virus-induced cytopathic effect incubated for 40 hrs by CellTiter-Glo assay; type: functional, cell-based, Influenza A virus (A/WSN/1933(H1N1))
# [4] = Cytotoxicity against MDCK cells assessed as decrease in cell viability after 40 hrs by CellTiter-Glo assay; type: cell-based, Canis lupus familiaris; conditions: dog
# [5] = Selectivity index, ratio of CC50 against uninfected MDCK cells to IC50 against Influenza A virus (A/WSN/33(H1N1)) infected MDCK cells; type: toxicity, cell-based; conditions: dog; read-out: Ratio CC50/IC50
SMILES,"viability at 40 h, 100 µM [1] [%]",inhibition at 100 µM [2] [%],IC50 [3] [µM],CC50 at 40 h [4] [µM],selectivity ratio [5]
C=C(C)[C@@H]1CC[C@]2(C(=O)NCc3cn([C@]4(C(=O)OC)C[C@H](OC(C)=O)[C@@H](NC(C)=O)[C@H]([C@H](OC(C)=O)[C@@H](COC(C)=O)OC(C)=O)O4)nn3)CC[C@]3(C)[C@H](CC[C@@H]4[C@@]5(C)CC[C@H](O)C(C)(C)[C@@H]5CC[C@]43C)[C@@H]12,100,16,–,–,–
C=C(C)[C@@H]1CC[C@]2(C(=O)NCc3cn(CCO[C@]4(C(=O)OC)C[C@H](OC(C)=O)[C@@H](NC(C)=O)[C@H]([C@H](OC(C)=O)[C@@H](COC(C)=O)OC(C)=O)O4)nn3)CC[C@]3(C)[C@H](CC[C@@H]4[C@@]5(C)CC[C@H](O)C(C)(C)[C@@H]5CC[C@]43C)[C@@H]12,105,67.6,78.3,> 500,> 6.3
COC(=O)[C@@]1(OCCOC(=O)[C@]23CCC(C)(C)C[C@@H]2C2=CC[C@@H]4[C@@]5(C)CC[C@H](O)C(C)(C)[C@@H]5CC[C@@]4(C)[C@]2(C)CC3)C[C@H](OC(C)=O)[C@@H](NC(C)=O)[C@H]([C@H](OC(C)=O)[C@@H](COC(C)=O)OC(C)=O)O1,90.1,18.7,–,–,–
COC(=O)[C@@]1(n2cc(CNC(=O)[C@]34CC[C@@H](C)[C@H](C)[C@@H]3C3=CC[C@@H]5[C@@]6(C)CC[C@H](O)C(C)(C)[C@@H]6CC[C@@]5(C)[C@]3(C)CC4)nn2)C[C@H](OC(C)=O)[C@@H](NC(C)=O)[C@H]([C@H](OC(C)=O)[C@@H](COC(C)=O)OC(C)=O)O1,2.5,–,–,–,–
COC(=O)[C@@]1(OCCn2cc(CNC(=O)[C@]34CC[C@@H](C)[C@H](C)[C@@H]3C3=CC[C@@H]5[C@@]6(C)CC[C@H](O)C(C)(C)[C@@H]6CC[C@@]5(C)[C@]3(C)CC4)nn2)C[C@H](O)[C@@H](NC(C)=O)[C@H]([C@H](O)[C@H](O)CO)O1,20.1,–,–,–,–
COC(=O)[C@@]1(OCCOC(=O)[C@]23CCC(C)(C)C[C@@H]2C2=CC[C@@H]4[C@@]5(C)CC[C@H](O)C(C)(C)[C@@H]5CC[C@@]4(C)[C@]2(C)C[C@H]3O)C[C@H](OC(C)=O)[C@@H](NC(C)=O)[C@H]([C@H](OC(C)=O)[C@@H](COC(C)=O)OC(C)=O)O1,84.5,31.2,–,–,–
COC(=O)[C@@]1(OCCOC(=O)[C@]23CCC(C)(C)C[C@@H]2C2=CC[C@@H]4[C@@]5(C)CC[C@H](O)C(C)(C)[C@@H]5CC[C@@]4(C)[C@]2(C)C[C@H]3O)C[C@H](O)[C@@H](NC(C)=O)[C@H]([C@H](O)[C@H](O)CO)O1,99.8,-11.8,–,–,–
CC1(C)CC[C@]2(C(=O)O)[C@H](O)C[C@]3(C)C(=CC[C@@H]4[C@@]5(C)CC[C@H](O)C(C)(C)[C@@H]5CC[C@]43C)[C@@H]2C1,40.1,–,–,–,–
COC(=O)[C@@]1(OCCOC(=O)[C@]23CC[C@@H](C)[C@H](C)[C@@H]2C2=CC[C@@H]4[C@@]5(C)CC[C@H](O)C(C)(C)[C@@H]5CC[C@@]4(C)[C@]2(C)CC3)C[C@H](OC(C)=O)[C@@H](NC(C)=O)[C@H]([C@H](OC(C)=O)[C@@H](COC(C)=O)OC(C)=O)O1,0.2,–,–,–,–
COC(=O)[C@@]1(OCCn2cc(CNC(=O)[C@]34CCC(C)(C)C[C@@H]3C3=CC[C@@H]5[C@@]6(C)CC[C@H](O)C(C)(C)[C@@H]6CC[C@@]5(C)[C@]3(C)CC4)nn2)C[C@H](O)[C@@H](NC(C)=O)[C@H]([C@H](O)[C@H](O)CO)O1,107,6.7,–,–,–
COC(=O)[C@@]1(OCCn2cc(CNC(=O)[C@]34CCC(C)(C)C[C@@H]3C3=CC[C@@H]5[C@@]6(C)CC[C@H](O)C(C)(C)[C@@H]6CC[C@@]5(C)[C@]3(C)C[C@H]4O)nn2)C[C@H](O)[C@@H](NC(C)=O)[C@H]([C@H](O)[C@H](O)CO)O1,107,2.2,–,–,–
COC(=O)[C@@]1(OCCn2cc(CNC(=O)[C@]34CCC(C)(C)C[C@@H]3C3=CC[C@@H]5[C@@]6(C)CC[C@H](O)C(C)(C)[C@@H]6CC[C@@]5(C)[C@]3(C)C[C@H]4O)nn2)C[C@H](OC(C)=O)[C@@H](NC(C)=O)[C@H]([C@H](OC(C)=O)[C@@H](COC(C)=O)OC(C)=O)O1,105,15.3,–,–,–
COC(=O)[C@@]1(n2cc(CNC(=O)[C@]34CCC(C)(C)C[C@@H]3C3=CC[C@@H]5[C@@]6(C)CC[C@H](O)C(C)(C)[C@@H]6CC[C@@]5(C)[C@]3(C)CC4)nn2)C[C@H](OC(C)=O)[C@@H](NC(C)=O)[C@H]([C@H](OC(C)=O)[C@@H](COC(C)=O)OC(C)=O)O1,104,1.3,–,–,–
COC(=O)[C@@]1(n2cc(CNC(=O)[C@]34CCC(C)(C)C[C@@H]3C3=CC[C@@H]5[C@@]6(C)CC[C@H](O)C(C)(C)[C@@H]6CC[C@@]5(C)[C@]3(C)C[C@H]4O)nn2)C[C@H](OC(C)=O)[C@@H](NC(C)=O)[C@H]([C@H](OC(C)=O)[C@@H](COC(C)=O)OC(C)=O)O1,103,-5.2,–,–,–
COC(=O)[C@@]1(OCCn2cc(CNC(=O)[C@]34CC[C@@H](C)[C@H](C)[C@@H]3C3=CC[C@@H]5[C@@]6(C)CC[C@H](O)C(C)(C)[C@@H]6CC[C@@]5(C)[C@]3(C)CC4)nn2)C[C@H](OC(C)=O)[C@@H](NC(C)=O)[C@H]([C@H](OC(C)=O)[C@@H](COC(C)=O)OC(C)=O)O1,3.3,–,–,–,–
COC(=O)[C@@]1(OCCOC(=O)[C@]23CC[C@@H](C)[C@H](C)[C@@H]2C2=CC[C@@H]4[C@@]5(C)CC[C@H](O)C(C)(C)[C@@H]5CC[C@@]4(C)[C@]2(C)CC3)C[C@H](O)[C@@H](NC(C)=O)[C@H]([C@H](O)[C@H](O)CO)O1,0.1,–,–,–,–
COC(=O)[C@@]1(OCCn2cc(CNC(=O)[C@]34CCC(C)(C)C[C@@H]3C3=CC[C@@H]5[C@@]6(C)CC[C@H](O)C(C)(C)[C@@H]6CC[C@@]5(C)[C@]3(C)CC4)nn2)C[C@H](OC(C)=O)[C@@H](NC(C)=O)[C@H]([C@H](OC(C)=O)[C@@H](COC(C)=O)OC(C)=O)O1,97.1,57.8,95.2,> 500,> 5.2
COC(=O)[C@@]1(N=[N+]=[N-])C[C@H](OC(C)=O)[C@@H](NC(C)=O)[C@H]([C@H](OC(C)=O)[C@@H](COC(C)=O)OC(C)=O)O1,100,1,–,–,–
COC(=O)[C@@]1(n2cc(CNC(=O)[C@]34CCC(C)(C)C[C@@H]3C3=CC[C@@H]5[C@@]6(C)CC[C@H](O)C(C)(C)[C@@H]6CC[C@@]5(C)[C@]3(C)CC4)nn2)C[C@H](O)[C@@H](NC(C)=O)[C@H]([C@H](O)[C@H](O)CO)O1,106,-4.6,–,–,–
COC(=O)[C@@]1(n2cc(CNC(=O)[C@]34CC[C@@H](C)[C@H](C)[C@@H]3C3=CC[C@@H]5[C@@]6(C)CC[C@H](O)C(C)(C)[C@@H]6CC[C@@]5(C)[C@]3(C)CC4)nn2)C[C@H](O)[C@@H](NC(C)=O)[C@H]([C@H](O)[C@H](O)CO)O1,12.2,–,–,–,–
C[C@H]1[C@H](C)CC[C@]2(C(=O)O)CC[C@]3(C)C(=CC[C@@H]4[C@@]5(C)CC[C@H](O)C(C)(C)[C@@H]5CC[C@]43C)[C@H]12 [URSOLIC ACID],0.4,–,–,–,–
COC(=O)[C@@]1(n2cc(CNC(=O)[C@]34CCC(C)(C)C[C@@H]3C3=CC[C@@H]5[C@@]6(C)CC[C@H](O)C(C)(C)[C@@H]6CC[C@@]5(C)[C@]3(C)C[C@H]4O)nn2)C[C@H](O)[C@@H](NC(C)=O)[C@H]([C@H](O)[C@H](O)CO)O1,104,-3.6,–,–,–
COC(=O)[C@@]1(OCCOC(=O)[C@]23CCC(C)(C)C[C@@H]2C2=CC[C@@H]4[C@@]5(C)CC[C@H](O)C(C)(C)[C@@H]5CC[C@@]4(C)[C@]2(C)CC3)C[C@H](O)[C@@H](NC(C)=O)[C@H]([C@H](O)[C@H](O)CO)O1,82.4,16.4,–,–,–
C=C(C)[C@@H]1CC[C@]2(C(=O)NCc3cn(CCO[C@]4(C(=O)OC)C[C@H](O)[C@@H](NC(C)=O)[C@H]([C@H](O)[C@H](O)CO)O4)nn3)CC[C@]3(C)[C@H](CC[C@@H]4[C@@]5(C)CC[C@H](O)C(C)(C)[C@@H]5CC[C@]43C)[C@@H]12,104,12.2,–,–,–
COC(=O)[C@@]1(OCCI)C[C@H](OC(C)=O)[C@@H](NC(C)=O)[C@H]([C@H](OC(C)=O)[C@@H](COC(C)=O)OC(C)=O)O1,103,6.3,–,–,–
C=C(C)[C@@H]1CC[C@]2(C(=O)NCc3cn([C@]4(C(=O)OC)C[C@H](O)[C@@H](NC(C)=O)[C@H]([C@H](O)[C@H](O)CO)O4)nn3)CC[C@]3(C)[C@H](CC[C@@H]4[C@@]5(C)CC[C@H](O)C(C)(C)[C@@H]5CC[C@]43C)[C@@H]12,104,-8.1,–,–,–
COC(=O)[C@@]1(OCCN=[N+]=[N-])C[C@H](OC(C)=O)[C@@H](NC(C)=O)[C@H]([C@H](OC(C)=O)[C@@H](COC(C)=O)OC(C)=O)O1,100,4.3,–,–,–
CC1(C)CC[C@]2(C(=O)O)CC[C@]3(C)C(=CC[C@@H]4[C@@]5(C)CC[C@H](O)C(C)(C)[C@@H]5CC[C@]43C)[C@@H]2C1 [OLEANOLIC_ACID],60.9,–,–,–,–

# Source: ChEMBL document CHEMBL3994565 (Medchemcomm, 2016)
